Measurements published in patent EP1056700B1, “MEDICINAL USES OF PHENYLALKANOLS AND DERIVATES” (ZingoTX Pty Ltd, priority 1997, dated 1999).

Experiments:
Cyclo-oxygenase (COX) = experiment: Cyclo-oxygenase assay in RBL 2H3 cells (PGD2 EIA); type: cell-based, rat; conditions: final concentration of 10 µM
Description: Cyclo-oxygenase (COX) assay was performed with cells in culture prepared from rat basophilic leukemia (RBL) 2H3 cell lines. Cells were cultured in EMEM containing 10% fetal calf serum and antibiotic until cells reached confluence. Harvested cells were subsequently seeded on 24-well plates at 1 x 10^6 cells/ml then incubated at 37°C for 3 hours. Cells were washed twice with incubation buffer (1.5 ml) containing 5 mM Hepes, 140 mM NaCl, 5 mM KCl, 0.6 mM MgCl2, 1 mM CaCl2 and […]. Cells were then covered with 0.49 ml of buffer, followed by addition of samples/solvents (0.005 ml) and incubated at 37 °C for 5 min on an orbital shaker. Arachidonic acid (0.005 ml, containing 50% EtOH) was subsequently added, and the plate was incubated at similar conditions for a further 10 min. The supernatant (0.1 ml) was aliquoted for methoxime derivatisation of PGD2, which was carried out by heating the supernatant with methoxime solution (1:1) at 60 °C for 30 min according to the instructions provided with the kit. The resultant solution was diluted with EIA buffer and stored on ice for EIA, following the protocol provided with the kit.
Validation of COX enzyme activity was carried out using EIA in which the enzyme activity was characterised against various concentrations of AA and a time course of enzyme activity.
[…] Indomethacin was used as reference compound. The concentration of DMSO in the assay was maintained at 1.5%.

Lipoxygenase (LP) = target: T1, Lipoxygenase (LP) (Rattus norvegicus, UniProt P12527); experiment: Lipoxygenase assay with cell-free enzyme from RBL 2H3 cells (EIA); type: biochemical; conditions: final concentration of 10 µM
T1 construct: cell-free enzyme (Wong et al, 1991) prepared from rat basophilic leukemia (RBL) 2H3 cell lines; endogenous in cells; host or cells: RBL 2H3 (rat basophilic leukemia), 15,000 g supernatant of cells disrupted by nitrogen cavitation
T1 sequence (P12527 1-673): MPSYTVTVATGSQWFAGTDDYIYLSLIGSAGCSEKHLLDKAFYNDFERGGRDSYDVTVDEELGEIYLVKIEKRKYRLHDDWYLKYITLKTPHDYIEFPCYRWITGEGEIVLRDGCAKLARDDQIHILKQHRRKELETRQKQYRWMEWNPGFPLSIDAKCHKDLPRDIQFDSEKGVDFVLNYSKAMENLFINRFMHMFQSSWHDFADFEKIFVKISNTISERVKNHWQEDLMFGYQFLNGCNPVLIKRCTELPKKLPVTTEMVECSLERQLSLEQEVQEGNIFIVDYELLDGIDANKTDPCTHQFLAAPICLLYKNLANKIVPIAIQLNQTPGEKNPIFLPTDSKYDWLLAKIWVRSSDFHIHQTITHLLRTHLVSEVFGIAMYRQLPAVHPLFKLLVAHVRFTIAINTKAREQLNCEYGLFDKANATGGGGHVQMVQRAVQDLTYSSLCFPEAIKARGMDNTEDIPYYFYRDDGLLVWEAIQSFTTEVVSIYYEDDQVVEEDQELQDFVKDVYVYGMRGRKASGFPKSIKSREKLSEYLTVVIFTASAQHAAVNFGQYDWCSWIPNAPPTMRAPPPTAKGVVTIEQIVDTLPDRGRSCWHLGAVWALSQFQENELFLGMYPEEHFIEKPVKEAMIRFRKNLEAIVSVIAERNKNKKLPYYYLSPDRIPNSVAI
How it was run: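 Cell-free enzyme from the 15,000 g supernatant of nitrogen-cavitated RBL 2H3 cells, preincubated 5 min with compound at 10 µM final (1.5% DMSO) in Hepes pH 7. Reaction started with CaCl2, ATP, PAF and arachidonic acid and run 8 min at room temperature; product quantified by EIA.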

Row | Compound | Cyclooxygenase activity % activity (Cyclo-oxygenase (COX)) [%] | activity at 10 µM (Lipoxygenase (LP)) [%]
1 | CCCCCCCC(O)CC(=O)CCc1cccc(OC)c1O (stereo not drawn) [[8]-orthogingerol, 5-hydroxy-1-(2-hydroxy-3-methoxyphenyl)dodecan-3-one] | 17 | 118
2 | CCCCCCCC(O)CC(=O)CCc1ccc(O)cc1 (stereo not drawn) [[8]-demethoxygingerol, 5-hydroxy-1-(4-hydroxyphenyl)dodecan-3-one] | 63 | 450
3 | CCCCCCCC(O)CC(=O)CCc1ccc(OC)c(O)c1 (stereo not drawn) [[8]-isogingerol, 5-hydroxy-1-(3-hydroxy-4-methoxyphenyl)dodecan-3-one, reference compound] | 23 | 8
4 | CCCCCCCC(O)CC(=O)CCc1ccc(O)c(OC)c1 (stereo not drawn) [[8]-gingerol, 5-hydroxy-1-(4-hydroxy-3-methoxyphenyl)dodecan-3-one, reference compound] | 16 | 65.5
5 | CCCCCCCC(=O)CC(O)CCc1ccc(O)c(OC)c1 (stereo not drawn) [3-hydroxy-1-(4-hydroxy-3-methoxyphenyl)dodecan-5-one] | 18 | 193
6 | CCCCCCCCCC(O)CCc1ccc(O)c(OC)c1 (stereo not drawn) [1-(4-hydroxy-3-methoxyphenyl)dodecan-3-ol] | 9 | 31
7 | CCCCCCCC(O)CC(O)CCc1ccc(O)c(OC)c1 (stereo not drawn) [[8]-gingerdiol, 1-(4-hydroxy-3-methoxyphenyl)dodecane-3,5-diol, reference compound] | 10 | 26
8 | CCCCCCCC(O)CC(=O)CCc1ccc2c(c1)OCO2 (stereo not drawn) [5-hydroxy-1-(3,4-methylenedioxyphenyl)dodecan-3-one] | 59 | 107
9 | CCCCCC(O)CC(=O)CCc1ccc(O)c(OC)c1 (stereo not drawn) [[6]-gingerol, 5-hydroxy-1-(4-hydroxy-3-methoxyphenyl)decan-3-one, reference compound] | 55 | 202
10 | CCCCCCCC(O)CC(=O)C=Cc1ccc(O)c(OC)c1 (stereo not drawn) [[8]-dehydrogingerol, 5-hydroxy-1-(4-hydroxy-3-methoxyphenyl)dodecan-1-ene-3-one, reference compound] | 19 | 37
11 | CCCCCCCC(O)CCCCc1ccc(O)c(OC)c1 (stereo not drawn) [1-(4-hydroxy-3-methoxyphenyl)dodecan-5-ol] | 12 | 35
12 | CCCCCCCC(O)CC(=O)c1ccc(O)c(OC)c1 (stereo not drawn) [3-hydroxy-1-(4-hydroxy-3-methoxyphenyl)decan-1-one] | 123 | 175
